Assay results from publication PMC10794144, “A novel antibiotic class targeting the lipopolysaccharide transporter” (Nature, 2024).
Like-named read-outs stand apart in the source and are kept apart here.

Test system: A. baumannii

Structure (SMILES): CN1C(=O)[C@H](CCCCN)NC(=O)[C@H](CCCN)NCc2cccnc2Sc2cccc(-c3ccc(C(=O)O)cc3)c2CNC(=O)[C@@H]1Cc1c[nH]c2ccccc12 [zosurabalpin]
- MIC_value (ATCC 19606 clone 1C4, run AB19606_3280_HS, evolved in HS_MHB): 8 µM
- MIC_value (ATCC 19606 clone 2C1, run AB19606_3280_HS, evolved in HS_MHB): 64 µM
- MIC_value (ATCC 19606 clone 2C3, run AB19606_3280_HS, evolved in HS_MHB): 64 µM
- MIC_value (ATCC 19606 clone 2C6, run AB19606_3280_HS, evolved in HS_MHB): 16 µM
- MIC_value (ATCC 19606 clone 2E1, run AB19606_3280_MHB, evolved in MHB): 16 µM
- MIC_value (ATCC 19606 clone 2E2, run AB19606_3280_MHB, evolved in MHB): 16 µM
- MIC_value (ATCC 19606 clone 2E3, run AB19606_3280_MHB, evolved in MHB): 8 µM
- MIC_value (ATCC 19606 clone 2E6, run AB19606_3280_MHB, evolved in MHB): 16 µM
- MIC_value (ATCC 19606 clone 3D1, run AB19606_3280_MHB, evolved in MHB): 2 µM
- MIC_value (ATCC 19606 clone 3F1, run AB19606_3280_MHB, evolved in MHB): 64 µM
- MIC_value (ATCC 19606 clone 4C1, run AB19606_3280_HS, evolved in HS_MHB): 4 µM
- MIC_value (ATCC 19606 clone 4C2, run AB19606_3280_HS, evolved in HS_MHB): 16 µM
- MIC_value (ATCC 19606 clone 4C7, run AB19606_3280_HS, evolved in HS_MHB): 64 µM
- MIC_value (ATCC 19606 clone 5C4, run AB19606_3280_HS, evolved in HS_MHB): 32 µM
- MIC_value (ATCC 19606 clone 5E2, run AB19606_3280_HS, evolved in HS_MHB): 16 µM
- MIC_value (ATCC 19606 clone 5E3, run AB19606_3280_HS, evolved in HS_MHB): 8 µM
- MIC_value (ATCC 19606 clone 5E5, run AB19606_3280_HS, evolved in HS_MHB): <2 µM
- MIC_value (ATCC 19606 clone 5E6, run AB19606_3280_HS, evolved in HS_MHB): 16 µM
- MIC_value (ATCC 19606 clone 5E7, run AB19606_3280_HS, evolved in HS_MHB): 8 µM
- MIC_value (ATCC 19606 clone 5F1, run AB19606_3280_MHB, evolved in MHB): >128 µM
- MIC_value (ATCC 19606 clone 5F2, run AB19606_3280_MHB, evolved in MHB): 16 µM
- MIC_value (ATCC 19606 clone 5F3, run AB19606_3280_MHB, evolved in MHB): 16 µM
- MIC_value (ATCC 19606 clone 6E1, run AB19606_3280_HS, evolved in HS_MHB): 8 µM
- MIC_value (ROB08705 clone 1C1, run ABR05_3280_HS, evolved in HS_MHB): 4 µM
- MIC_value (ROB08705 clone 2C1, run ABR05_3280_MHB, evolved in MHB): >32 µM
- MIC_value (ROB08705 clone 2D1, run ABR05_3280_MHB, evolved in MHB): 8 µM
- MIC_value (ROB08705 clone 3B1, run ABR05_3280_HS, evolved in HS_MHB): 4 µM
- MIC_value (ROB08705 clone 3B1, run ABR05_3280_MHB, evolved in MHB): 8 to 16 µM
- MIC_value (ROB08705 clone 3B3, run ABR05_3280_HS, evolved in HS_MHB): 4 to 8 µM
- MIC_value (ROB08705 clone 3B4, run ABR05_3280_HS, evolved in HS_MHB): 16 µM
- MIC_value (ROB08705 clone 3B5, run ABR05_3280_HS, evolved in HS_MHB): 2 µM
- MIC_value (ROB08705 clone 3B6, run ABR05_3280_HS, evolved in HS_MHB): 1 µM
- MIC_value (ROB08705 clone 4B1, run ABR05_3280_HS, evolved in HS_MHB): 128 µM
- MIC_value (ROB08705 clone 4B2, run ABR05_3280_HS, evolved in HS_MHB): 4 µM
- MIC_value (ROB08705 clone 4D1, run ABR05_3280_MHB, evolved in MHB): 4 µM
- MIC_value (ROB08705 clone 5C2, run ABR05_3280_HS, evolved in HS_MHB): 4 µM
- MIC_value (ROB08705 clone 5C3, run ABR05_3280_HS, evolved in HS_MHB): 32 µM
- MIC_value (ROB08705 clone 5C5, run ABR05_3280_HS, evolved in HS_MHB): 8 µM
- MIC_value (ROB08706 clone 1D1, run ABR06_3280_MHB, evolved in MHB): 32 to 64 µM
- MIC_value (ROB08706 clone 1E1, run ABR06_3280_HS, evolved in HS_MHB): 4 to 8 µM
- MIC_value (ROB08706 clone 1E2, run ABR06_3280_HS, evolved in HS_MHB): 64 µM
- MIC_value (ROB08706 clone 2C1, run ABR06_3280_MHB, evolved in MHB): 32 µM
- MIC_value (ROB08706 clone 2C3, run ABR06_3280_MHB, evolved in MHB): 4 µM
- MIC_value (ROB08706 clone 2D1, run ABR06_3280_HS, evolved in HS_MHB): 2 µM
- MIC_value (ROB08706 clone 2D5, run ABR06_3280_HS, evolved in HS_MHB): 4 µM
- MIC_value (ROB08706 clone 2D6, run ABR06_3280_HS, evolved in HS_MHB): 4 µM
- MIC_value (ROB08706 clone 2D7, run ABR06_3280_HS, evolved in HS_MHB): 2 µM
- MIC_value (ROB08706 clone 2E1, run ABR06_3280_HS, evolved in HS_MHB): 32 µM
- MIC_value (ROB08706 clone 3B3, run ABR06_3280_MHB, evolved in MHB): 4 µM
- MIC_value (ROB08706 clone 3E1, run ABR06_3280_HS, evolved in HS_MHB): 4 µM
- MIC_value (ROB08706 clone 4D1, run ABR06_3280_MHB, evolved in MHB): 8 to 16 µM
- MIC_value (ROB08706 clone 4D2, run ABR06_3280_MHB, evolved in MHB): 4 to 8 µM
- MIC_value (ROB08706 clone 4E1, run ABR06_3280_HS, evolved in HS_MHB): 4 µM
- MIC_value (ROB08706 clone 5C1, run ABR06_3280_MHB, evolved in MHB): 4 µM
- MIC_value (ROB08706 clone 5D3, run ABR06_3280_MHB, evolved in MHB): 4 to 8 µM
